Results published in ChEMBL document CHEMBL1201862, “PubChem BioAssay data set” (2004).
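Briefly, cells in 96-well plates were exposed to five compound concentrations for 48 h, and endpoints were estimated by linear interpolation. Abbreviation: GI50, concentration required for 50% inhibition of growth.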 Active and inactive are the calls of the source. Rule as the data show it: active = GI50 up to about 1.1 µM and inactive = higher.

Tests used:
Test in all cases: growth of human tumour cells (NCI), 48 h
[1] = system: DLD-1
[2] = system: KM-20L2
[3] = system: LXFL 529
[4] = system: RXF 631
[5] = system: SNB-78
[6] = system: DMS-273
[7] = system: HOP-18
[8] = system: DMS-114
[9] = system: XF498

Structure (SMILES) | GI50 [1] | GI50 [2] | GI50 [3] | GI50 [4] | GI50 [5] | GI50 [6] | GI50 [7] | GI50 [8] | GI50 [9]
CCCCCCCCSC(SCCCCCCCC)=C1C(=O)N(c2ccccc2)N=C1C | 21.4 µM (inactive) | 55.7 µM (inactive) | 43.4 µM (inactive) | > 100 µM (inactive) | > 100 µM (inactive) | 49.4 µM (inactive) | 61.7 µM (inactive) | 28.4 µM (inactive) | –
O=C(O/N=C1\CCCC\C1=C/c1ccccc1)c1ccc([N+](=O)[O-])cc1 | 80 µM (inactive) | > 100 µM (inactive) | 54 µM (inactive) | > 100 µM (inactive) | > 100 µM (inactive) | > 100 µM (inactive) | > 100 µM (inactive) | 61.9 µM (inactive) | –
COC(=O)C(C(=O)C(=O)Nc1c(Cl)cc([N+](=O)[O-])cc1Cl)c1csc(-n2nc(C3=CCCCC3)cc2-c2ccccc2)n1 (stereo not drawn) | 28.8 µM (inactive) | 29 µM (inactive) | 40.7 µM (inactive) | 45.6 µM (inactive) | 40 µM (inactive) | 74.5 µM (inactive) | 10.3 µM (inactive) | – | –
CC1=CC(C)(C)N=C2SC(c3ccc(Cl)cc3)=NN12 | 19.5 µM (inactive) | 22.5 µM (inactive) | 32.4 µM (inactive) | – | 59.2 µM (inactive) | 38 µM (inactive) | 21 µM (inactive) | 23.5 µM (inactive) | 14.2 µM (inactive)
CC12CC[C@@H](C(C)(C)O)C1[C@@H](O)CC1(C)C2CCC2[C@@]3(C)CC[C@H](O)C(C)(C)C3C(O)C[C@]21C (stereo partly drawn) | 19.8 µM (inactive) | 10 µM (inactive) | 14 µM (inactive) | 18.5 µM (inactive) | 14.6 µM (inactive) | – | 24.6 µM (inactive) | 13.6 µM (inactive) | –
Sc1nnc(COc2ccc(Cl)cc2)o1 | > 100 µM (inactive) | > 100 µM (inactive) | > 100 µM (inactive) | > 100 µM (inactive) | > 100 µM (inactive) | > 100 µM (inactive) | > 100 µM (inactive) | > 100 µM (inactive) | –
N#Cc1cnsc1 | > 100 µM (inactive) | > 100 µM (inactive) | > 100 µM (inactive) | > 100 µM (inactive) | > 100 µM (inactive) | > 100 µM (inactive) | > 100 µM (inactive) | > 100 µM (inactive) | > 100 µM (inactive)
Cn1c(=O)nc2n(-c3ccc(O)cc3)c3ccccc3nc-2c1=O | > 100 µM (inactive) | 64.3 µM (inactive) | > 100 µM (inactive) | 63.5 µM (inactive) | > 100 µM (inactive) | 11.5 µM (inactive) | > 100 µM (inactive) | 22.5 µM (inactive) | 60 µM (inactive)
CCCCCCCCCCNC1CC(OC2CC(O)(C(O)CO)Cc3c(O)c4c(c(O)c32)C(=O)c2c(OC)cccc2C4=O)OC(C)C1O (stereo not drawn) | 1.13 µM (inactive) | 1.69 µM (inactive) | 0.731 µM (active) | 1.53 µM (inactive) | 1.84 µM (inactive) | 1.79 µM (inactive) | 1.87 µM (inactive) | 1.46 µM (inactive) | 1.91 µM (inactive)
CC1CCC(C(C)C)C(O[C@@H]2OC(=O)C[C@@H]2Sc2ccccc2)C1 (stereo partly drawn) | 33.1 µM (inactive) | > 10 µM (inactive) | 19.1 µM (inactive) | 21.2 µM (inactive) | 25.3 µM (inactive) | 18.4 µM (inactive) | – | 19.5 µM (inactive) | –
Cc1c2ccncc2c(C)c2c1[nH]c1ccc(O)c(OCC(F)(F)F)c12 | 8 µM (inactive) | 12.2 µM (inactive) | 5.12 µM (inactive) | – | 4.47 µM (inactive) | 1.79 µM (inactive) | – | 2.44 µM (inactive) | 12.6 µM (inactive)
O=C(c1ccc2c3c(ccc(C(=O)C(F)(F)F)c13)CC2)C(F)(F)F | 88.1 µM (inactive) | 35.2 µM (inactive) | 40.3 µM (inactive) | – | > 100 µM (inactive) | 27.9 µM (inactive) | 53.2 µM (inactive) | 41.4 µM (inactive) | 9.31 µM (inactive)
CC(C)(C)N/N=C(\Cc1occc(=O)c1O)C(=O)Nc1ccc([N+](=O)[O-])cc1[N+](=O)[O-] | – | > 100 µM (inactive) | > 100 µM (inactive) | > 100 µM (inactive) | > 100 µM (inactive) | > 100 µM (inactive) | > 100 µM (inactive) | > 100 µM (inactive) | > 100 µM (inactive)
